# From ChEMBL document CHEMBL3044598, “Study of inhibitory effects and action mechanism of the novel fungicide pyrimorph against Phytophthora capsici” (J Agric Food Chem, 2010)
# Calls of active or inactive are those of the source. No cut-off for these calls is given here.
# What was measured:
# [1] = tested on: Phytophthora capsici; test: Inhibition of intact mycelial respiration of Phytophthora capsici assessed as superpose rate of oxygen consumption at 10 ug/mL in presence of sodium phosphate; format: functional; set-up: scale not given: the % may be the effect or the level left
# [2] = tested on: Phytophthora capsici; test: Inhibition of intact mycelial respiration of Phytophthora capsici assessed as superpose rate of oxygen consumption at 10 ug/mL in presence of iodoacetic acid; format: functional; set-up: scale not given: the % may be the effect or the level left
# [3] = tested on: Phytophthora capsici; test: Inhibition of intact mycelial respiration of Phytophthora capsici assessed as superpose rate of oxygen consumption at 10 ug/mL in presence of malonic acid; format: functional; set-up: scale not given: the % may be the effect or the level left
# [4] = tested on: Phytophthora capsici; test: Inhibition of intact mycelial respiration of Phytophthora capsici at 10 ug/mL in presence of sodium phosphate; format: functional
# [5] = tested on: Phytophthora capsici; test: Inhibition of intact mycelial respiration of Phytophthora capsici at 10 ug/mL in presence of iodoacetic acid; format: functional
# [6] = tested on: Phytophthora capsici; test: Inhibition of intact mycelial respiration of Phytophthora capsici at 10 ug/mL in presence of malonic acid; format: functional
# [7] = tested on: Phytophthora capsici; test: Inhibition of intact mycelial respiration of Phytophthora capsici at 10 ug/mL; format: functional
# [8] = tested on: Phytophthora capsici; test: Inhibition of intact mycelial respiration of Phytophthora capsici assessed as superpose rate of oxygen consumption at 100 ug/mL in presence of sodium phosphate; format: functional; set-up: scale not given: the % may be the effect or the level left
# [9] = tested on: Phytophthora capsici; test: Inhibition of intact mycelial respiration of Phytophthora capsici assessed as superpose rate of oxygen consumption at 100 ug/mL in presence of iodoacetic acid; format: functional; set-up: scale not given: the % may be the effect or the level left
# [10] = tested on: Phytophthora capsici; test: Inhibition of intact mycelial respiration of Phytophthora capsici assessed as superpose rate of oxygen consumption at 100 ug/mL in presence of malonic acid; format: functional; set-up: scale not given: the % may be the effect or the level left
# [11] = tested on: Phytophthora capsici; test: Inhibition of intact mycelial respiration of Phytophthora capsici at 100 ug/mL in presence of sodium phosphate; format: functional
# [12] = tested on: Phytophthora capsici; test: Inhibition of intact mycelial respiration of Phytophthora capsici at 100 ug/mL in presence of iodoacetic acid; format: functional
# [13] = tested on: Phytophthora capsici; test: Inhibition of intact mycelial respiration of Phytophthora capsici at 100 ug/mL in presence of malonic acid; format: functional
# [14] = tested on: Phytophthora capsici; test: Inhibition of intact mycelial respiration of Phytophthora capsici at 100 ug/mL; format: functional
# [15] = tested on: Phytophthora capsici; test: Inhibition of sporangia formation of Phytophthora capsici treated 240 min after sporangia incubation followed by compound exposure for 60 min by light microscopy; format: functional, organism-based
# [16] = tested on: Phytophthora capsici; test: Inhibition of cytospore germination of Phytophthora capsici at 2 ug/mL after 24 hr; format: functional
# [17] = tested on: Phytophthora capsici; test: Inhibition of cytospore germination of Phytophthora capsici at 1 ug/mL after 24 hr; format: functional
# [18] = tested on: Phytophthora capsici; test: Inhibition of cytospore germination of Phytophthora capsici at 0.2 ug/mL after 24 hr; format: functional
# [19] = tested on: Phytophthora capsici; test: Inhibition of cytospore germination of Phytophthora capsici at 0.5 ug/mL after 24 hr; format: functional
# [20] = tested on: Phytophthora capsici; test: Inhibition of cytospore germination of Phytophthora capsici at 0.1 ug/mL after 24 hr; format: functional
# [21] = tested on: Phytophthora capsici; test: Inhibition of sporangia formation of Phytophthora capsici at 2 ug/mL treated 240 min after sporangia incubation followed by compound exposure for 60 min by light microscopy; format: functional
# [22] = tested on: Phytophthora capsici; test: Inhibition of sporangia formation of Phytophthora capsici at 1 ug/mL treated 240 min after sporangia incubation followed by compound exposure for 60 min by light microscopy; format: functional
# [23] = tested on: Phytophthora capsici; test: Inhibition of sporangia formation of Phytophthora capsici at 0.5 ug/mL treated 240 min after sporangia incubation followed by compound exposure for 60 min by light microscopy; format: functional
# [24] = tested on: Phytophthora capsici; test: Inhibition of sporangia formation of Phytophthora capsici at 0.2 ug/mL treated 240 min after sporangia incubation followed by compound exposure for 60 min by light microscopy; format: functional
# [25] = tested on: Phytophthora capsici; test: Inhibition of sporangia formation of Phytophthora capsici at 0.1 ug/mL treated 240 min after sporangia incubation followed by compound exposure for 60 min by light microscopy; format: functional
# [26] = tested on: Phytophthora capsici; test: Inhibition of mycelial radial growth of Phytophthora capsici incubated at 25 degC for 5 days; format: functional, organism-based; conditions: 120 h
# [27] = tested on: Phytophthora capsici; test: Inhibition of mycelial radial growth of Phytophthora capsici at 5 ug/mL incubated at 25 degC for 5 days in presence of 5 ug/mL ATP; format: functional; conditions: 120 h
# [28] = tested on: Phytophthora capsici; test: Inhibition of mycelial radial growth of Phytophthora capsici at 5 ug/mL incubated at 25 degC for 5 days in presence of 1 ug/mL ATP; format: functional
# [29] = tested on: Phytophthora capsici; test: Inhibition of mycelial radial growth of Phytophthora capsici at 10 ug/mL incubated at 25 degC for 5 days in absence of 5 ug/mL ATP; format: functional
# [30] = tested on: Phytophthora capsici; test: Inhibition of mycelial radial growth of Phytophthora capsici at 10 ug/mL incubated at 25 degC for 5 days in presence of 5 ug/mL ATP; format: functional
# [31] = tested on: Phytophthora capsici; test: Inhibition of mycelial radial growth of Phytophthora capsici at 10 ug/mL incubated at 25 degC for 5 days in presence of 1 ug/mL ATP; format: functional
# [32] = tested on: Phytophthora capsici; test: Inhibition of mycelial radial growth of Phytophthora capsici at 5 ug/mL incubated at 25 degC for 5 days; format: functional; conditions: 120 h
# [33] = tested on: Phytophthora capsici; test: Inhibition of mycelial radial growth of Phytophthora capsici at 2 ug/mL incubated at 25 degC for 5 days; format: functional; conditions: 120 h
# [34] = tested on: Phytophthora capsici; test: Induction of morphological changes in Phytophthora capsici assessed as distortion of vacuoles and vesicles in dense bodies at 10 ug/mL by transmission electron microscopy; format: functional, organism-based
# [35] = tested on: Phytophthora capsici; test: Induction of morphological changes in Phytophthora capsici assessed as increase in dense bodies at 10 ug/mL by transmission electron microscopy; format: functional, organism-based
# [36] = tested on: Phytophthora capsici; test: Induction of morphological changes in Phytophthora capsici assessed as induction of distortion of cell wall at 10 ug/mL by transmission electron microscopy; format: functional, organism-based
# [37] = tested on: Phytophthora capsici; test: Induction of morphological changes in Phytophthora capsici assessed as induction of multilayered cell wall development at 10 ug/mL by transmission electron microscopy; format: functional, organism-based
# [38] = tested on: Phytophthora capsici; test: Induction of morphological changes in Phytophthora capsici assessed as reduction in number of vesicles at 5 ug/mL by transmission electron microscopy; format: functional, organism-based
# [39] = tested on: Phytophthora capsici; test: Inhibition of mycelial radial growth of Phytophthora capsici at 1 ug/mL incubated at 25 degC for 5 days; format: functional; conditions: 120 h
# [40] = tested on: Phytophthora capsici; test: Inhibition of mycelial radial growth of Phytophthora capsici at 0.6 ug/mL incubated at 25 degC for 5 days; format: functional; conditions: 120 h
# [41] = tested on: Phytophthora capsici; test: Induction of morphological changes in Phytophthora capsici assessed as increase in extensive cell wall proliferation at 5 ug/mL by transmission electron microscopy; format: functional, organism-based
# [42] = tested on: Phytophthora capsici; test: Induction of morphological changes in Phytophthora capsici assessed as increase in abnormal mycelial configurations at 10 ug/mL by scanning electron microscopy; format: functional, organism-based
# [43] = tested on: Phytophthora capsici; test: Induction of morphological changes in Phytophthora capsici assessed as increase in mycelial ramifications at 10 ug/mL by scanning electron microscopy; format: functional, organism-based
# [44] = tested on: Phytophthora capsici; test: Induction of morphological changes in Phytophthora capsici assessed as increase in mycelial colony density at 10 ug/mL by scanning electron microscopy; format: functional, organism-based
# [45] = tested on: Phytophthora capsici; test: Induction of morphological changes in Phytophthora capsici assessed as abnormal mycelial growth at 10 ug/mL by scanning electron microscopy; format: functional, organism-based
# [46] = tested on: Phytophthora capsici; test: Induction of morphological changes in Phytophthora capsici assessed as increase in mycelial colony density at 5 ug/mL by scanning electron microscopy; format: functional, organism-based
# [47] = tested on: Phytophthora capsici; test: Induction of morphological changes in Phytophthora capsici assessed as abnormal mycelial growth at 5 ug/mL by scanning electron microscopy; format: functional, organism-based
# [48] = tested on: Phytophthora capsici; test: Inhibition of zoospore release of Phytophthora capsici at 100 ug/mL; format: functional
# [49] = tested on: Phytophthora capsici; test: Inhibition of zoospore release of Phytophthora capsici at 50 ug/mL; format: functional
# [50] = tested on: Phytophthora capsici; test: Inhibition of zoospore release of Phytophthora capsici at 25 ug/mL; format: functional
# [51] = tested on: Phytophthora capsici; test: Inhibition of zoospore release of Phytophthora capsici at 6 ug/mL; format: functional
# [52] = tested on: Phytophthora capsici; test: Inhibition of zoospore release of Phytophthora capsici at 12 ug/mL; format: functional
# [53] = tested on: Phytophthora capsici; test: Inhibition of zoospore release of Phytophthora capsici; format: functional, organism-based
# [54] = tested on: Phytophthora capsici; test: Inhibition of cytospore germination of Phytophthora capsici after 24 hr; format: functional, organism-based
structure (smiles),measurement,setting,value
CO/C=C(/C(=O)OC)c1ccccc1Oc1cc(Oc2ccccc2C#N)ncn1 [AZOXYSTROBIN],Activity,[1],51.36%
same,Activity,[2],53.27%
same,Activity,[3],9.02%
same,inhibition at 10 µg/mL,[4],86.2%
same,inhibition at 10 µg/mL,[5],86.8%
same,inhibition at 10 µg/mL,[6],74.2%
same,inhibition at 10 µg/mL,[7],71.7%
COc1ccc(C(=CC(=O)N2CCOCC2)c2ccc(Cl)cc2)cc1OC [DIMETHOMORPH],Activity,[8],44.06%
same,Activity,[9],51.62%
same,Activity,[10],49.91%
same,inhibition at 100 µg/mL,[11],55%
same,inhibition at 100 µg/mL,[12],61.1%
same,inhibition at 100 µg/mL,[13],59.6%
same,inhibition at 100 µg/mL,[14],19.4%
CC(C)(C)c1ccc(/C(=C/C(=O)N2CCOCC2)c2ccnc(Cl)c2)cc1 [PYRIMORPH],EC50,[15],0.17 µg/mL
same,EC90,[15],3.21 µg/mL
same,inhibition at 2 µg/mL,[16],84%
same,inhibition at 1 µg/mL,[17],71%
same,inhibition at 0.2 µg/mL,[18],56%
same,inhibition at 0.5 µg/mL,[19],68%
same,inhibition at 0.1 µg/mL,[20],54%
same,inhibition at 2 µg/mL,[21],85%
same,inhibition at 1 µg/mL,[22],75%
same,inhibition at 0.5 µg/mL,[23],66%
same,inhibition at 0.2 µg/mL,[24],57%
same,inhibition at 0.1 µg/mL,[25],52%
same,EC50,[26],1.84 µg/mL
same,EC90,[26],5.71 µg/mL
same,inhibition at 5 µg/mL,[27],72%
same,inhibition (INH),[28],75%
same,inhibition (INH),[29],98%
same,inhibition (INH),[30],77%
same,inhibition (INH),[31],78.1%
same,inhibition at 5 µg/mL,[32],81%
same,inhibition at 2 µg/mL,[33],57%
same,Activity,[34],Active
same,Activity,[35],Active
same,Activity,[36],Active
same,Activity,[37],Active
same,Activity,[38],Active
same,inhibition at 1 µg/mL,[39],28%
same,inhibition at 0.6 µg/mL,[40],9%
same,Activity,[41],Active
same,Activity,[42],Active
same,Activity,[43],Active
same,Activity,[44],Active
same,Activity,[45],Active
same,Activity,[46],Active
same,Activity,[47],Active
same,Activity,[8],5.22%
same,Activity,[9],32.61%
same,Activity,[10],18.31%
same,inhibition at 100 µg/mL,[11],44%
same,inhibition at 100 µg/mL,[12],60.2%
same,inhibition at 100 µg/mL,[13],51.8%
same,inhibition at 100 µg/mL,[14],41%
same,inhibition at 100 µg/mL,[48],95%
same,inhibition at 50 µg/mL,[49],94%
same,inhibition at 25 µg/mL,[50],80%
same,inhibition at 6 µg/mL,[51],58%
same,inhibition at 12 µg/mL,[52],65%
same,EC50,[53],4.92 µg/mL
same,EC90,[53],45.7 µg/mL
same,EC50,[54],0.09 µg/mL
same,EC90,[54],8.16 µg/mL
